According to PubChem BioAssay AID1963967 (Molecular Pharmacology Branch, DTP, NCI, 2024):

System: 855422-203-R-J1-PDC spheroids with HUVEC/MSC, viability
Test: Anticancer human tumor 855422-203-R-J1-PDC patient-derived bladder carcinoma cell line growth inhibition [PI3K]
Details: for IC50: curve of first compound; for viability, T/C: stronger effect = lower value
In short: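 Targeted small molecules plus PI3K inhibitors, half-log dose series from Cmax (default top 10 microM), were applied to heterotypic spheroids of cancer cells with HUVEC and MSCs. Viability indicated growth inhibition.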

[1] = second compound 0.00316 µM, first compound 0.00316 µM
[2] = second compound 0.00316 µM, first compound 0.01 µM
[3] = second compound 0.00316 µM, first compound 0.0316 µM
[4] = second compound 0.00316 µM, first compound 0.1 µM
[5] = second compound 0.01 µM, first compound 0.00316 µM
[6] = second compound 0.01 µM, first compound 0.01 µM
[7] = second compound 0.01 µM, first compound 0.0316 µM
[8] = second compound 0.01 µM, first compound 0.1 µM
[9] = second compound 0.0316 µM, first compound 0.00316 µM
[10] = second compound 0.0316 µM, first compound 0.01 µM
[11] = second compound 0.0316 µM, first compound 0.0316 µM
[12] = second compound 0.0316 µM, first compound 0.1 µM
[13] = second compound 0.1 µM, first compound 0.00316 µM
[14] = second compound 0.1 µM, first compound 0.01 µM
[15] = second compound 0.1 µM, first compound 0.0316 µM
[16] = second compound 0.1 µM, first compound 0.1 µM
[17] = second compound 0.316 µM, first compound 0.00316 µM
[18] = second compound 0.316 µM, first compound 0.01 µM
[19] = second compound 0.316 µM, first compound 0.0316 µM
[20] = second compound 0.316 µM, first compound 0.1 µM
[21] = second compound 1 µM, first compound 0.00316 µM
[22] = second compound 1 µM, first compound 0.01 µM
[23] = second compound 1 µM, first compound 0.0316 µM
[24] = second compound 1 µM, first compound 0.1 µM
[25] = second compound 0.0316 µM, first compound 0.000316 µM
[26] = second compound 0.0316 µM, first compound 0.001 µM
[27] = second compound 0.1 µM, first compound 0.000316 µM
[28] = second compound 0.1 µM, first compound 0.001 µM
[29] = second compound 0.316 µM, first compound 0.000316 µM
[30] = second compound 0.316 µM, first compound 0.001 µM
[31] = second compound 1 µM, first compound 0.000316 µM
[32] = second compound 1 µM, first compound 0.001 µM
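Further: agents incubated with spheroids for one week before read-out.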
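Wherever viability, T/C is given: 100% = DMSO vehicle-treated control wells.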

Q: Which results are given for CCN1CCN(Cc2ccc(Nc3ncc(F)c(-c4cc(F)c5nc(C)n(C(C)C)c5c4)n3)nc2)CC1 + COc1c(OCCCN2CCOCC2)ccc2c3n(c(=NC(=O)c4cnc(N)nc4)nc12)CCN3?
A: IC50 (second compound 0.00316 µM): > 1000 nM; IC50 (second compound 0.01 µM): 409 nM; IC50 (second compound 0.0316 µM): 55 nM; IC50 (second compound 0.1 µM): < 3.16 nM; IC50 (second compound 0.316 µM): < 3.16 nM; IC50 (second compound 1 µM): < 3.16 nM; viability, T/C [1]: 95.2%; viability, T/C [2]: 77.9%; viability, T/C [3]: 103%; viability, T/C [4]: 82.6%; viability, T/C (second compound 0.00316 µM, first compound 0.316 µM): 77.6%; viability, T/C (second compound 0.00316 µM, first compound 1 µM): 60.5%; viability, T/C [5]: 87.8%; viability, T/C [6]: 89.9%; viability, T/C [7]: 85.2%; viability, T/C [8]: 71.1%; viability, T/C (second compound 0.01 µM, first compound 0.316 µM): 52.9%; viability, T/C (second compound 0.01 µM, first compound 1 µM): 41.6%; viability, T/C [9]: 64.8%; viability, T/C [10]: 67.6%; viability, T/C [11]: 52.7%; viability, T/C [12]: 45.7%; viability, T/C (second compound 0.0316 µM, first compound 0.316 µM): 26.7%; viability, T/C (second compound 0.0316 µM, first compound 1 µM): 20.6%; viability, T/C [13]: 28.9%; viability, T/C [14]: 29.3%; viability, T/C [15]: 22.7%; viability, T/C [16]: 15.6%; viability, T/C (second compound 0.1 µM, first compound 0.316 µM): 12.2%; viability, T/C (second compound 0.1 µM, first compound 1 µM): 13.9%; viability, T/C [17]: 11.5%; viability, T/C [18]: 9.97%; viability, T/C [19]: 8.87%; viability, T/C [20]: 7.84%; viability, T/C (second compound 0.316 µM, first compound 0.316 µM): 8.06%; viability, T/C (second compound 0.316 µM, first compound 1 µM): 8.7%; viability, T/C [21]: 4.05%; viability, T/C [22]: 5.98%; viability, T/C [23]: 4.02%; viability, T/C [24]: 4.36%; viability, T/C (second compound 1 µM, first compound 0.316 µM): 4.5%; viability, T/C (second compound 1 µM, first compound 1 µM): 5.49%

Q: What does the source list for Cn1ncnc1[C@H]1c2n[nH]c(=O)c3cc(F)cc(c23)N[C@@H]1c1ccc(F)cc1 + Cc1nc(NC(=O)N2CCCC2C(N)=O)sc1-c1ccnc(C(C)(C)C(F)(F)F)c1?
A: IC50 (second compound 0.0316 µM): > 100 nM; IC50 (second compound 0.1 µM): > 100 nM; IC50 (second compound 0.316 µM): > 100 nM; IC50 (second compound 1 µM): > 100 nM; IC50 (second compound 3.16 µM): 0.903 nM; IC50 (second compound 10 µM): < 0.316 nM; viability, T/C [25]: 112%; viability, T/C [26]: 92.8%; viability, T/C [9]: 112%; viability, T/C [10]: 96.8%; viability, T/C [11]: 105%; viability, T/C [12]: 109%; viability, T/C [27]: 105%; viability, T/C [28]: 102%; viability, T/C [13]: 102%; viability, T/C [14]: 101%; viability, T/C [15]: 101%; viability, T/C [16]: 105%; viability, T/C [29]: 92.9%; viability, T/C [30]: 93.8%; viability, T/C [17]: 95.8%; viability, T/C [18]: 94.7%; viability, T/C [19]: 98.6%; viability, T/C [20]: 97.2%; viability, T/C [31]: 72.7%; viability, T/C [32]: 74%; viability, T/C [21]: 79.2%; viability, T/C [22]: 75.5%; viability, T/C [23]: 79.4%; viability, T/C [24]: 68.3%; viability, T/C (second compound 3.16 µM, first compound 0.000316 µM): 51.6%; viability, T/C (second compound 3.16 µM, first compound 0.001 µM): 49.8%; viability, T/C (second compound 3.16 µM, first compound 0.00316 µM): 47.1%; viability, T/C (second compound 3.16 µM, first compound 0.01 µM): 47.7%; viability, T/C (second compound 3.16 µM, first compound 0.0316 µM): 49.1%; viability, T/C (second compound 3.16 µM, first compound 0.1 µM): 44.6%; viability, T/C (second compound 10 µM, first compound 0.000316 µM): 25.6%; viability, T/C (second compound 10 µM, first compound 0.001 µM): 25.1%; viability, T/C (second compound 10 µM, first compound 0.00316 µM): 22.2%; viability, T/C (second compound 10 µM, first compound 0.01 µM): 27.8%; viability, T/C (second compound 10 µM, first compound 0.0316 µM): 25.1%; viability, T/C (second compound 10 µM, first compound 0.1 µM): 21.3%

Q: With CC(=O)c1c(C)c2cnc(Nc3ccc(N4CCNCC4)cn3)nc2n(C2CCCC2)c1=O + CC(Nc1ccc2c(c1)OCCn1cc(N3C(=O)OCC3C(F)F)nc1-2)C(N)=O as the compound, how does the IC50 (second compound 0.00316 µM) read?
A: Its IC50 is greater than 100 nM.

Q: And the IC50 (second compound 0.01 µM)?
A: Its IC50 is greater than 100 nM.

Q: And the IC50 (second compound 0.0316 µM)?
A: Its IC50 is greater than 100 nM.

Q: What about the IC50 (second compound 0.1 µM) of the same compound?
A: Its IC50 is 75.5 nM.

Q: And the IC50 (second compound 0.316 µM)?
A: Its IC50 is 10.6 nM.

Q: And the IC50 (second compound 1 µM)?
A: Its IC50 is less than 0.316 nM.

Q: And the viability, T/C (second compound 0.00316 µM, first compound 0.000316 µM)?
A: The viability, T/C was 110%.

Q: What about the viability, T/C (second compound 0.00316 µM, first compound 0.001 µM) of the same compound?
A: The viability, T/C was 88.9%.

Q: What about the viability, T/C [1] of the same compound?
A: Its viability, T/C is 109%.

Q: What about the viability, T/C [2] of the same compound?
A: Its viability, T/C is 84.1%.

Q: What about the viability, T/C [3] of the same compound?
A: The viability, T/C was 97.6%.

Q: And the viability, T/C [4]?
A: The viability, T/C was 74.2%.

Q: And the viability, T/C (second compound 0.01 µM, first compound 0.000316 µM)?
A: Its viability, T/C is 99%.

Q: What about the viability, T/C (second compound 0.01 µM, first compound 0.001 µM) of the same compound?
A: The viability, T/C was 87%.

Q: And the viability, T/C [5]?
A: Its viability, T/C is 98.3%.

Q: And the viability, T/C [6]?
A: The viability, T/C was 86%.

Q: And the viability, T/C [7]?
A: Its viability, T/C is 98%.

Q: And the viability, T/C [8]?
A: Its viability, T/C is 75.8%.

Q: What about the viability, T/C [25] of the same compound?
A: The viability, T/C was 84.1%.

Q: What about the viability, T/C [26] of the same compound?
A: The viability, T/C was 84%.

Q: And the viability, T/C [9]?
A: Its viability, T/C is 86.3%.

Q: What about the viability, T/C [10] of the same compound?
A: Its viability, T/C is 85.1%.

Q: What about the viability, T/C [11] of the same compound?
A: The viability, T/C was 83.5%.

Q: What about the viability, T/C [12] of the same compound?
A: Its viability, T/C is 60.8%.

Q: What about the viability, T/C [27] of the same compound?
A: The viability, T/C was 72.1%.

Q: What about the viability, T/C [28] of the same compound?
A: Its viability, T/C is 78.4%.

Q: What about the viability, T/C [13] of the same compound?
A: Its viability, T/C is 62.1%.

Q: What about the viability, T/C [14] of the same compound?
A: The viability, T/C was 73.7%.

Q: And the viability, T/C [15]?
A: The viability, T/C was 72%.

Q: And the viability, T/C [16]?
A: Its viability, T/C is 43.2%.

Q: And the viability, T/C [29]?
A: The viability, T/C was 54.2%.

Q: What about the viability, T/C [30] of the same compound?
A: The viability, T/C was 51.3%.

Q: What about the viability, T/C [17] of the same compound?
A: The viability, T/C was 57.4%.

Q: And the viability, T/C [18]?
A: The viability, T/C was 47.9%.

Q: And the viability, T/C [19]?
A: The viability, T/C was 44.4%.

Q: What about the viability, T/C [20] of the same compound?
A: Its viability, T/C is 29.9%.

Q: And the viability, T/C [31]?
A: Its viability, T/C is 37%.

Q: What about the viability, T/C [32] of the same compound?
A: The viability, T/C was 36%.

Q: What about the viability, T/C [21] of the same compound?
A: Its viability, T/C is 31.9%.

Q: And the viability, T/C [22]?
A: Its viability, T/C is 30.6%.

Q: What about the viability, T/C [23] of the same compound?
A: Its viability, T/C is 31.2%.

Q: And the viability, T/C [24]?
A: Its viability, T/C is 15.4%.
